Earlier results, collected in the CATMoS acute toxicity set (Mansouri et al. 2021).

Assay: rat acute oral toxicity
Details: in vivo
Excerpt: […]The data set underlying the modeling effort for this project was initially compiled by NICEATM and U.S. EPA’s CCTE. Briefly, LD50 data were collected from rat acute oral systemic toxicity tests, including limit tests, ranges/confidence intervals, and discrete LD50 values. The full data set included 21,200 LD50 entries for 15,688 substances. […] Data were reviewed to ensure that LD50 values with obvious errors in the extracted data such as unit conversion errors (e.g., comma and decimal separator misplacements) were either fixed or removed. After this review, 16,209 LD50 values remained. Many of the chemicals represented had multiple LD50 entries, requiring that a single representative value per Chemical Abstracts Service Registry Number (CASRN) identifier be defined to facilitate modeling efforts. Based on ATWG feedback and to define the representative LD50 as a protective value while accounting for the distribution across multiple LD50s, the median of the lowest quartile was computed using only discrete LD50 values (omitting limit test data and range and confidence interval data). A detailed summary of the data compilation is available online on the NICEATM webpage dedicated to the collaborative modeling project (NTP 2020).
[…][…] For categorical designations, limit test and range/confidence interval LD50 data were integrated wherever possible. As such, the number of chemicals with end point values/calls varies across the modeling end points (Table 3) based on whether chemicals had representative LD50 values and/or other data. If a chemical had both, the representative value was used to determine categorical calls rather than limit test data. Some data were useable only for certain end points and categories depending on the thresholds. For example, ranges that spanned multiple hazard categories were considered only for the binary (very toxic/nontoxic) end points and omitted from rendering a determination for hazard category assignment.
[…]The final data set comprising 11,992 chemicals was split into training and evaluation sets […], respectively. This process was performed semirandomly by ordering chemicals based on the five end points (categorical and continuous LD50 values) and partitioning every fourth record into the evaluation set accordingly. This approach was taken to ensure an equivalent distribution of the LD50 values and the different hazard categories between the training and the evaluation sets without supervised sampling of the chemicals based on structures (Figure 1A). The sources of the chemical structures were also kept equivalent between the two sets, with chemical structures obtained from DSSTox, being the highest quality, representing over 75% of each set (Figure 1B).
In the case of `O=C1C=CC(=NCl)C=C1`, the LD50 is listed as 100 mg/kg. In the case of `CCOP(=O)(OCC)OC(=CBr)c1ccc(Cl)cc1Cl`, the LD50 is listed as 21.4 mg/kg. In the case of `c1ccc(-c2nnn[nH]2)cc1`, the LD50 is given as 1900 mg/kg. For `O=COCCOC=O`, the LD50 is listed as 1510 mg/kg. In the case of `NC(=O)N/N=C/c1ccc([N+](=O)[O-])o1`, the LD50 is given as 590 mg/kg. For `O=C(NC1CCSC1=O)c1cccnc1` (centres undefined), the LD50 is listed as 4500 mg/kg. In the case of `CCC1(CC)C(=O)NCC(C)C1=O` (centres undefined), the LD50 is given as 860 mg/kg. In the case of `Cc1c(Cl)cccc1Nc1ccccc1C(=O)O`, the LD50 is given as 225 mg/kg. For `CCCC(CCC)C(=O)O`, the LD50 is listed as 670 mg/kg. For `Nc1ccc(C(=O)O)cc1`, the LD50 is listed as 8000 mg/kg. In the case of `CCNc1ccc(C(=C2C=CC(=[N+](C)C)C=C2)c2ccc(N(C)C)cc2)c2ccccc12`, the LD50 is given as 960 mg/kg. In the case of `CCCOCN(C(=O)CCl)c1c(C)cccc1OCC`, the LD50 is given as 2100 mg/kg. For `OC1(c2ccc(Cl)c(C(F)(F)F)c2)CCN(CCCC(c2ccc(F)cc2)c2ccc(F)cc2)CC1`, the LD50 is given as 160 mg/kg. For `CC(CN(C)C)CN1c2ccccc2Sc2ccccc21` (centres undefined), the LD50 is given as 210 mg/kg. In the case of `COCCN1C=CC(=C2C(=O)c3ccccc3C2=O)C=C1`, the LD50 is listed as 350 mg/kg. In the case of `CCC1OCSC1=NOC(=O)NC` (centres undefined), the LD50 is given as 24 mg/kg. For `COP(=O)(OC)C(O)(C(F)F)C(F)F`, the LD50 is listed as 9 mg/kg. In the case of `CC(=O)OCCN(CCC#N)c1ccccc1`, the LD50 is given as 2070 mg/kg. In the case of `O=C(O)C1C(C(=O)O)C2(Cl)C(Cl)=C(Cl)C1(Cl)C2(Cl)Cl` (centres undefined), the LD50 is given as 1770 mg/kg. For `CC1=C2C(=O)O[C@@H](c3ccoc3)[C@]2(C)CCC1`, the LD50 is given as 274 mg/kg. In the case of `CCCCC(CC)CO[Si](O)(O)O` (centres undefined), the LD50 is given as 19700 mg/kg. In the case of `O=S(=O)(O)c1ccccc1C=Cc1ccc(-c2ccc(C=Cc3ccccc3S(=O)(=O)O)cc2)cc1`, the LD50 is given as 5580 mg/kg. In the case of `CCOc1ccc(C(=O)NCc2ccc(OCCNC)cc2)cc1OCC`, the LD50 is given as 3000 mg/kg. In the case of `CCCC(=O)c1ccc2c(c1)N(CCCN1CCN(C)CC1)c1ccccc1S2`, the LD50 is given as 413 mg/kg. In the case of `NCCC[Si]12OCCN(CCO1)CCO2`, the LD50 is listed as 5800 mg/kg. For `CC(=O)OCC[N+](C)(C)C`, the LD50 is given as 2500 mg/kg. In the case of `O=C(O)C1=CC(=C(c2ccc(O)c(C(=O)O)c2)c2ccc(O)c(C(=O)O)c2)C=CC1=O`, the LD50 is given as 9000 mg/kg. In the case of `CCCCOCCOC(=O)COc1cc(Cl)c(Cl)cc1Cl`, the LD50 is listed as 500 mg/kg. For `CO[Si](CCl)(OC)OC`, the LD50 is given as 500 mg/kg. For `OCCN1CCN(CCC=C2c3ccccc3Sc3ccc(C(F)(F)F)cc32)CC1`, the LD50 is listed as 791 mg/kg. In the case of `CCN(N=O)C(C)C`, the LD50 is listed as 1100 mg/kg. For `CC(C)CCN(C)C`, the LD50 is listed as 225 mg/kg. For `CC1OCC2C(CO1)C1(Cl)C(Cl)=C(Cl)C2(Cl)C1(Cl)Cl` (centres undefined), the LD50 is given as 120 mg/kg. For `CCOc1ccc(C=O)cc1`, the LD50 is given as 2100 mg/kg. In the case of `CCCCNc1ccccc1`, the LD50 is listed as 1620 mg/kg. For `CCOC(=O)C(SP(=O)(OC)OC)c1ccccc1` (centres undefined), the LD50 is given as 63 mg/kg. For `COc1cc(C=CC(=O)N2CCN(CC(=O)NC(C)C)CC2)cc(OC)c1OC`, the LD50 is given as 1300 mg/kg. For `CC(=O)Nc1ccc(C)c(NS(=O)(=O)C(F)(F)F)c1`, the LD50 is given as 2580 mg/kg. In the case of `C=COC`, the LD50 is given as 4900 mg/kg. In the case of `CC1=CC(=O)C(C(C)C)CC1` (centres undefined), the LD50 is given as 2450 mg/kg. For `CC1=CCC(C(C)C)=CC1`, the LD50 is given as 3650 mg/kg. For `Cc1nc(NCc2ccccc2)c2cc[nH]c2n1`, the LD50 is given as 80 mg/kg. In the case of `CCO[Si](CNCCCCCCN)(OCC)OCC`, the LD50 is listed as 500 mg/kg. For `CNCCON=C1c2ccccc2CCc2ccccc21`, the LD50 is listed as 860 mg/kg. For `CCOC(=O)C(C)(CC)Oc1ccc(Cc2ccc(Cl)cc2)cc1` (centres undefined), the LD50 is given as 9000 mg/kg. In the case of `CSCC(=O)N(C)C(=O)Oc1ccccc1OC(C)C`, the LD50 is given as 650 mg/kg. For `CCCc1ccn[nH]1`, the LD50 is given as 616 mg/kg. For `O=C1CCC(C(=O)NC2CC2c2ccccc2)N1` (centres undefined), the LD50 is listed as 96 mg/kg. For `CCCCCCCCCCCCc1ccc(C)c(C[N+](C)(C)C)c1`, the LD50 is listed as 389 mg/kg. In the case of `CN(C)c1ccc(N)c2ccccc12`, the LD50 is listed as 400 mg/kg. In the case of `c1ccc(C2CCCCC2)c(OCCC2=NCCN2)c1`, the LD50 is given as 9.2 mg/kg. For `CC(C)N(CCC(C#N)(c1ccccc1)c1ccccn1)C(C)C` (centres undefined), the LD50 is given as 596 mg/kg. For `COc1ccc(CCNCC(O)COc2ccc(OCC(C)=O)c3c2CCC(=O)N3)cc1OC` (centres undefined), the LD50 is listed as 1260 mg/kg. For `FC(F)(F)c1ccc2nc(C(F)(F)F)[nH]c2c1`, the LD50 is listed as 9.02 mg/kg. For `CCCCOC(=O)CCC(=O)OCCCC`, the LD50 is given as 8000 mg/kg. For `C=CCOC(=O)CC(C)C`, the LD50 is listed as 230 mg/kg. For `CCC(Cl)(Cl)Cl`, the LD50 is given as 7460 mg/kg. For `Cc1nn(-c2ccccc2)c(=O)c2noc(C)c12`, the LD50 is given as 1000 mg/kg. For `CCOC(=O)Nc1cccc(OC(=O)Nc2ccccc2)c1`, the LD50 is listed as 9600 mg/kg. For `CCCCCCCCCCCCCCCCOP(=O)([O-])OCC[N+](C)(C)C`, the LD50 is given as 246 mg/kg. In the case of `c1ccc(C2CCCCC2)c(OCC2CNCCO2)c1` (centres undefined), the LD50 is given as 1120 mg/kg. In the case of `Cl[Si](Cl)(Cl)C1CC=CCC1` (centres undefined), the LD50 is given as 2830 mg/kg. For `C=COCCO`, the LD50 is listed as 3910 mg/kg. In the case of `CCCNC(=O)c1sc(-c2cc(OC)c(OC)c(OC)c2)nc1C`, the LD50 is given as 5600 mg/kg.
